Earlier results, collected in patent US7973075B2, “Kainate receptor-selective epimeric analogs of dysiherbaine” (priority 2007, dated 2011).

Columns and labels:
KA2 [1] = biological target: T1, KA2 (Rattus norvegicus, UniProt Q63273); conditions: Sanders et al., 2005; cited from earlier work
T1 construct: expressed in transfected cells; host or cells: HEK-293-T/17
T1 sequence (Q63273 15-979): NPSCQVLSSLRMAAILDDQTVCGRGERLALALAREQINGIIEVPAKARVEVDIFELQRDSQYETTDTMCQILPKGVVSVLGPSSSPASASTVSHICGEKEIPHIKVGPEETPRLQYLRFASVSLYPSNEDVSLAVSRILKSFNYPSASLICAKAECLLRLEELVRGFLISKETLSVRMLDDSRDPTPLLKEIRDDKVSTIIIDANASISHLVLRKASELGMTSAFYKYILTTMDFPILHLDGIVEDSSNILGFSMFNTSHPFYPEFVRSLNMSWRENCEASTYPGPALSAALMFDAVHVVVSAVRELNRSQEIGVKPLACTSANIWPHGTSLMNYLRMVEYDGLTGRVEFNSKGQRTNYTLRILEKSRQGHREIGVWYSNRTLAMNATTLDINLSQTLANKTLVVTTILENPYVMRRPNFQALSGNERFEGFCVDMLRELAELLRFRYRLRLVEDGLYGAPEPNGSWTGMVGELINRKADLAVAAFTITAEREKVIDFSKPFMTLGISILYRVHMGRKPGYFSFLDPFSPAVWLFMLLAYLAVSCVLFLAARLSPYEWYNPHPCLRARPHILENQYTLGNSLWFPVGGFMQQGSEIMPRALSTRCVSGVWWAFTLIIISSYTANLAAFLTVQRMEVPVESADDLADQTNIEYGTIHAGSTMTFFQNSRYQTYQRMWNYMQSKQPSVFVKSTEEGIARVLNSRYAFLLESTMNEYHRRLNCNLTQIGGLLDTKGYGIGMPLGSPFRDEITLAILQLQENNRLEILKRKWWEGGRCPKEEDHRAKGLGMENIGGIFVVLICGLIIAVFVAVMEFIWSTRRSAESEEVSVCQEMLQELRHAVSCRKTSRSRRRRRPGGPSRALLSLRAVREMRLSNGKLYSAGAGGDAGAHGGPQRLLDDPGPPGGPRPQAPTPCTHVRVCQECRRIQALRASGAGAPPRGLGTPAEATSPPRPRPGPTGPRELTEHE

mice = conditions: i.c.v. injection, mice; Shoji et al., 2006; cited from earlier work
GluR5-2a = biological target: T2, GluR5-2a (Rattus norvegicus, UniProt P22756, DEL402-416); conditions: Sanders et al., 2005; cited from earlier work
T2 construct: expressed in transfected cells; host or cells: HEK-293-T/17
T2 sequence (P22756 with tags, fused parts or gaps isoform P22756-2 limits assumed, stated change not applied): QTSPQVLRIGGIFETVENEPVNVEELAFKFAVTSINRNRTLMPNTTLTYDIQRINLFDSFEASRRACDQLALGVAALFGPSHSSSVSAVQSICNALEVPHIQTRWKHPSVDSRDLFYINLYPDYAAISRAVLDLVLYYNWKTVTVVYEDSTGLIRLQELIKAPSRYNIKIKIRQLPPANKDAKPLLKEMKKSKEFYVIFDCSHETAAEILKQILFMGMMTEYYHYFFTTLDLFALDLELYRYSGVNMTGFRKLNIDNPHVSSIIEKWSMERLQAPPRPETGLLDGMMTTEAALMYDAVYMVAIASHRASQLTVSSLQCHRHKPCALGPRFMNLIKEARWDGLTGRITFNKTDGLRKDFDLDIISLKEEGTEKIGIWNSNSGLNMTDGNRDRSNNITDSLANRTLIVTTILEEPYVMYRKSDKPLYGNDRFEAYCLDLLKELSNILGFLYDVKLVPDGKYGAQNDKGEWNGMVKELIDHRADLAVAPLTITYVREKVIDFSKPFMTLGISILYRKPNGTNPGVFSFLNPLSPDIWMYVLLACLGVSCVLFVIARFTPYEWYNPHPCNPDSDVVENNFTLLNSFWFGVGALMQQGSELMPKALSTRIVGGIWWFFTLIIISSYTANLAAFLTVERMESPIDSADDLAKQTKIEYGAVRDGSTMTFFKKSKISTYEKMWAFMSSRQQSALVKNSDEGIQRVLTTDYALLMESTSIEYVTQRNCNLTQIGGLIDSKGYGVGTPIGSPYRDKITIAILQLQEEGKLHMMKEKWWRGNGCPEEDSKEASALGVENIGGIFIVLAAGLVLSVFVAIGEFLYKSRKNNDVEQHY

KA2 [2] = biological target: T1, KA2; conditions: Tables 1-2; comparison values of neoDH and MSVIII-19 (Sanders et al., 2005); cited from earlier work
GluR6 = biological target: T3, GluR6 (Rattus norvegicus, UniProt P42260); conditions: Tables 1-2; comparison value of neoDH (Sanders et al., 2005); read-out: GluR6 binding affinity (displacement of [3H]kainate); cited from earlier work
T3 construct: expressed in transfected cells; HEK 293 (patch clamp)
T3 sequence (P42260 32-908): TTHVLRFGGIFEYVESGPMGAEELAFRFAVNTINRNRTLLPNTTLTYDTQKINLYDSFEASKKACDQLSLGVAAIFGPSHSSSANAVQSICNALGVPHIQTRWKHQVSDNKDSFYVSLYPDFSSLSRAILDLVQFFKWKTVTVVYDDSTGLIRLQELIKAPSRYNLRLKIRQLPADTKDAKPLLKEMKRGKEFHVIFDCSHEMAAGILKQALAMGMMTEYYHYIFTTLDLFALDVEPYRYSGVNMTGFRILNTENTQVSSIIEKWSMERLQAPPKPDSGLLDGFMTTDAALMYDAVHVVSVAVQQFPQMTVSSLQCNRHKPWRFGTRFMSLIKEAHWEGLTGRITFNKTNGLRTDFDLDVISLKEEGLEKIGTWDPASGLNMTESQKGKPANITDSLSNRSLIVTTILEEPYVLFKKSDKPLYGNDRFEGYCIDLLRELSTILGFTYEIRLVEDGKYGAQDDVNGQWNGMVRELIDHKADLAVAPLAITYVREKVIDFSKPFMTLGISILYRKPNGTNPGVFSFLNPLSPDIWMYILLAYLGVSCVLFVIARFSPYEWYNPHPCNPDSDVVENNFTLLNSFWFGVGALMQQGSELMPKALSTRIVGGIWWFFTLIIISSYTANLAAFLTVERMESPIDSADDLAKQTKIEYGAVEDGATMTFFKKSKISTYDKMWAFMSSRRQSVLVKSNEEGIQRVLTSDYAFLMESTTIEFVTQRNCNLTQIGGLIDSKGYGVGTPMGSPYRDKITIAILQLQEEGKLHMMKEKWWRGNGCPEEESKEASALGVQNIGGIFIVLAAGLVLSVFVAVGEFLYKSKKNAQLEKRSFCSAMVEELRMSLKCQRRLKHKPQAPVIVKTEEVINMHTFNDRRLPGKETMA

GluR5 = biological target: T4, GluR5 (Rattus norvegicus, UniProt P22756); conditions: Tables 1-2; comparison values of neoDH and MSVIII-19 (Sanders et al., 2005); read-out: GluR5 binding affinity (displacement of [3H]kainate); cited from earlier work
T4 construct: expressed in transfected cells; HEK 293 (patch clamp)
T4 sequence (P22756 with tags, fused parts or gaps isoform P22756-2): as the sequence (P22756 with tags, fused parts or gaps isoform P22756-2 limits assumed, stated change not applied) above

SMILES	Ki KA2 (KA2 [1]) [nM]	ED50 seizure activity (mice) [pmol/mouse]	Ki (GluR5-2a) [nM]	KA2 binding affinity (displacement of [3H]kainate) (KA2 [2]) [µM]	Ki (GluR6) [nM]	Ki (GluR5) [nM]
N[C@@H](C[C@]1(C(=O)O)C[C@H]2OC[C@@H](O)[C@@H](O)[C@H]2O1)C(=O)O [neodysiherbaine, Neodysiherbaine]	600	16	7.7	0.6	33	7.7
CN[C@H]1[C@H]2O[C@@](C[C@H](N)C(=O)O)(C(=O)O)C[C@H]2OC[C@H]1O [DH, Dysiherbaine]	–	13	–	–	–	–
